In PMC4997874 (Antimicrobial Agents and Chemotherapy, 2016):
Several values for one entry are separate records, joined by “and”; a condition that tells them apart may be missing. Identical values can stand only once. Counter-ions that a name gives are not always drawn. Marks after values point to notes of the source that are not given here.

Columns and labels:
[1] = tested on: PrP^Sc accumulation in persistently infected hTERT-ovine microglia; format: cell-based; conditions: for EC50: read-out: TC-EC50 (50% tissue culture effective concentration)
in vitro = conditions: sheep; for viability at 1 µM: % cell viability
[2] = tested on: PrP^Sc-positive hTERT-ovine microglia; assay: cells; format: cell-based; conditions: for activity at 1 µM: Ovis aries, Microglia, 96 h, read-out: % BrdU incorporation
[3] = tested on: PrP^Sc-positive hTERT-ovine microglia; assay: cells; format: cell-based; conditions: Ovis aries, 96 h, read-out: % cell count
[4] = tested on: PrP^Sc-positive hTERT-ovine microglia
[5] = target: PrP^Sc in scrapie-positive sheep brain homogenate (Ovis aries, UniProt P23907); format: biochemical
Sequence of PrP^Sc in scrapie-positive sheep brain homogenate (P23907 25-233 limits assumed): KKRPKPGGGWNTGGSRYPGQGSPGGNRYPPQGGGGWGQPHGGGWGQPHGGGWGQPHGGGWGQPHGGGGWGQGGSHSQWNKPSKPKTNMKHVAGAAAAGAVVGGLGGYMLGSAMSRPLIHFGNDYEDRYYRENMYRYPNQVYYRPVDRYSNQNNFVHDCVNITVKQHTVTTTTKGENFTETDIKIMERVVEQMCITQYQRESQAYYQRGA

[6] = tested on: PRNP transcripts in PrP^Sc-negative hTERT-ovine microglia; format: cell-based
[7] = tested on: total PrP^C in PrP^Sc-negative hTERT-ovine microglia; format: cell-based
[8] = tested on: PrP^Sc accumulation in scrapie-infected primary ovine microglia; conditions: cited from earlier work

Compound	% reduction in PrP^Sc [1]	viability at 1 µM (in vitro) [%]	EC50 [1] [nM]	activity at 1 µM [2] [%]	viability at 1 µM [3] [%]	CC50 (in vitro) [nM]	also measured
N=C(N)c1ccc(-c2ccc(-c3ccc(C(=N)N)cc3)o2)cc1 [DB075, furamidine]	27%	149					
Cn1c(-c2nc3ccc(C(=N)N)cc3[nH]2)ccc1-c1nc2ccc(C(=N)N)cc2[nH]1 [DB191]	65^d %	188	490 ± 140	74	88	> 3160	Selectivity index (CC50/TC-EC50) [1]: >6.4^e; Effect on cell viability in dilution series [4]: failed to demonstrate any effect on cell viability
N=C(N)c1ccc2nc(-c3ccc(-c4nc5ccc(C(=N)N)cc5[nH]4)[nH]3)[nH]c2c1 [DB192]	61^d %	150	910 ± 80	101	98	> 3160	Selectivity index (CC50/TC-EC50) [1]: >3.5^e; Effect on cell proliferation (BrdU) over the 4-day treatment period [2]: significant effect on cell proliferation was not detected
N=C(N)c1ccc2nc(-c3cccc(-c4nc5ccc(C(=N)N)cc5[nH]4)n3)[nH]c2c1 [DB205]	52^d %	127					
N=C(N)c1ccc(-c2ccc(-c3nc4ccc(C(=N)N)cc4[nH]3)o2)cc1 [DB293]	51^f %	135					
c1cc(-c2ccc(-c3nc4ccc(C5=NCCN5)cc4[nH]3)o2)ccc1C1=NCCN1 [DB302]	19%	205					
N=C(N)c1ccc2nc(-c3ccc(-c4ccc([N+](=O)[O-])cc4)o3)[nH]c2c1 [DB472]	11%	120					
N=C(N)c1ccc(-c2ccc(-c3nc4ccccc4[nH]3)o2)cc1 [DB771]	27%	98					Stabilization of PrP^Sc against PK digestion [5]: significant stabilization of PrP^Sc was not detected
c1ccc2[nH]c(-c3ccc(-c4ccc(C5=NCCN5)cc4)o3)nc2c1 [DB772, 2-(2-benzimidazolyl)-5-[4-(2-imidazolino)phenyl] furan dihydrochloride]		96	800 ± 90	78	89	3800 ± 900	Effect on cell proliferation (BrdU) over the 4-day treatment period [2]: significant effect on cell proliferation was not detected; Effect on PrP^C expression (PRNP transcripts) [6]: significant effect on PrP^C expression was not detected; Effect on PrP^C expression (total PrP) [7]: significant effect on PrP^C expression was not detected; Inhibition of PrP^Sc accumulation [8]: nearly complete inhibition
N=C(N)c1ccc(-c2ccc(-c3nc4ccc(C(=N)N)cc4[nH]3)s2)cc1 [DB818A]	74^f %	170	460 ± 80	76	85	> 3160	Stabilization of PrP^Sc against PK digestion [5]: significant stabilization of PrP^Sc was not detected
Cc1cc(C(=N)N)ccc1-c1ccc(-c2nc3ccc(C(=N)N)cc3[nH]2)o1 [DB850]	11%	154					
Nc1cccc(-c2ccc(-c3nc4ccc(C5=NCCN5)cc4[nH]3)o2)c1 [DB900]	−5%	125					
c1ccc2[nH]c(-c3ccc(-c4ccc(C5=NCCN5)cc4)s3)nc2c1 [DB932A]	70^f %	81	390 ± 110	66	92	2500 ± 300	Stabilization of PrP^Sc against PK digestion [5]: significant stabilization of PrP^Sc was not detected
Cn1c(-c2ccc(-c3ccc(C4=NCCN4)cc3)o2)nc2ccccc21 [DB948]	83% and 83^f %	60	430 ± 150		68	1500 ± 500	
c1ccc(-c2ccc(-c3nc4ccc(C5=NCCN5)cc4[nH]3)s2)cc1 [DB953]	53^f %	134					
N=C(N)c1ccc2nc(-c3ccc(-c4ccc(C(=N)N)c(F)c4)o3)[nH]c2c1 [DB989]	26%	126					
N=C(N)c1ccc2nc(-c3ccc(-c4ccc(C(=N)N)c(O)c4)o3)[nH]c2c1 [DB992]	30%	150					
N=C(N)c1ccc2nc(-c3ccc(-c4nc5ccc(C(=N)N)cc5[nH]4)s3)[nH]c2c1 [DB1033]	81% and 81^d %	91	580 ± 140	68	96	> 3160	Selectivity index (CC50/TC-EC50) [1]: >5.4^e; Effect on cell viability in dilution series [4]: failed to demonstrate any effect on cell viability
N=C(N)c1ccc(-c2ccc(-c3ccc(-c4nc5ccc(C(=N)N)cc5[nH]4)cc3)o2)nc1 [DB1264]	68^f %	138	390 ± 60	77	89	> 3160	Selectivity index (CC50/TC-EC50) [1]: >8.1^e; Effect on cell proliferation (BrdU) over the 4-day treatment period [2]: significant effect on cell proliferation was not detected
N=C(N)c1ccc2nc(-c3ccc(-c4ccc(-c5ccccc5)cc4)o3)[nH]c2c1 [DB1275]	49^f %	115					
N=C(N)c1ccc2nc(-c3ccc(-c4nc5ccc(C(=N)N)cc5[nH]4)[se]3)[nH]c2c1 [DB1310]	77% and 77^d %	110	410 ± 80	91	92	> 3160	Selectivity index (CC50/TC-EC50) [1]: >7.7^e; Effect on cell proliferation (BrdU) over the 4-day treatment period [2]: significant effect on cell proliferation was not detected
N=C(N)c1ccc(-c2ccc(-c3cnc4ccc(C(=N)N)cc4c3)s2)cc1 [DB1504]		156	390 ± 110	100	102	> 3160	Selectivity index (CC50/TC-EC50) [1]: >8.1^e; Effect on cell proliferation (BrdU) over the 4-day treatment period [2]: significant effect on cell proliferation was not detected
N=C(N)c1ccc2nc(-c3ccc(-c4ccc(C(N)=O)cc4)o3)[nH]c2c1 [DB1932]	24%	120					
N=C(N)c1ccc2nc(-c3ccc(-c4ccc(C(N)=O)cc4)s3)[nH]c2c1 [DB1933]	39%	127					
N=C(N)c1ccc2nc(-c3ccc(-c4ccc(-c5nc6ccc(C(=N)N)cc6[nH]5)o4)cc3)[nH]c2c1 [DB2137]	31%	102					
N=C(N)c1ccc2nc(-c3ccc(-c4cccc(-c5ccc(-c6nc7ccc(C(=N)N)cc7[nH]6)o5)c4)o3)[nH]c2c1 [DB2147]	37%	90					
N=C(N)c1ccc(-c2ccc(-c3ccc(-c4nc5ccc(C(=N)N)cc5[nH]4)cc3)s2)cc1 [DB2214]	69^f %	180	260 ± 140	68	84	> 3160	
N=C(N)c1ccc2nc(-c3ccc(-c4ccc(OCc5cn(CCc6cccc7ccccc67)nn5)cc4)s3)[nH]c2c1 [DB2228]	63^f %	120	200 ± 80	92	82	> 3160	Selectivity index (CC50/TC-EC50) [1]: >15.8^e; Effect on cell proliferation (BrdU) over the 4-day treatment period [2]: significant effect on cell proliferation was not detected
COc1ccc(-c2ccc(-c3nc4ccc(C(=N)N)cc4[nH]3)s2)cc1 [DB2263]	46^f %	108					
N=C(N)c1ccc2nc(-c3ccc(NC(=O)Nc4ccc(-c5nc6ccc(C(=N)N)cc6[nH]5)cc4)cc3)[nH]c2c1 [DB2265]	28%	105					
